This note sets out measurements from PMC2358973, “A Cysteine Protease Is Critical for Babesia spp. Transmission in Haemaphysalis Ticks” (PLoS Pathogens, 2008).

The target in this assay is T1, longipain (Haemaphysalis longicornis, UniProt A1IHG0).
T1 construct: gene HlCath; partial coding region (pPICZC) expressed in Pichia pastoris GS115, HiTrap chelating column purified; precursor 341 residues with 17-residue signal peptide
Nature of the assay: inhibition of fluorogenic substrate hydrolysis. As to conditions: read-out: Inhibition (%) relative to control / Z-F-R-MCA. In kind it is biochemical. An excerpt:
inhibition of fluorogenic substrate hydrolysis on longipain

T1 sequence (A1IHG0 22-341 limits assumed): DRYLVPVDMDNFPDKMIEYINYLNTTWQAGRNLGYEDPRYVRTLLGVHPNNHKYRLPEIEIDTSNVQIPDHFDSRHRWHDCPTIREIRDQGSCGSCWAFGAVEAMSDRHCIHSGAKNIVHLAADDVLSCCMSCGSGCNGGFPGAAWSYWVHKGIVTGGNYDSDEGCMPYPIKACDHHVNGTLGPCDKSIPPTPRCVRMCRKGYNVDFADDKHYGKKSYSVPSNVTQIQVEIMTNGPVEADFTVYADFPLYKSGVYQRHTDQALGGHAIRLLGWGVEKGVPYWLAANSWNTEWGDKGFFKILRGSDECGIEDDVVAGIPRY

With `CC(C)C[C@H](NC(=O)[C@@H]1O[C@H]1C(=O)O)C(=O)NCCCCNC(=N)N` [E-64], the inhibition at 10 µM is 84 ± 0.2%.
